Experiments:
Assay type in all cases: biochemical
human eIF4A1 [1] = target: T1, human eIF4A1 (Homo sapiens, UniProt P60842); test: malachite green phosphate release (RNA-dependent ATPase) assay; also Cy3/Cy5 RNA unwinding assay (IC50 […])
human eIF4A1 [2] = target: T1, human eIF4A1; test: malachite green phosphate release (RNA-dependent ATPase) assay
human eIF4A1 [3] = target: T1, human eIF4A1; test: malachite green phosphate release (RNA-dependent ATPase) assay; also Cy3/Cy5 RNA unwinding assay (IC50 […]); remark: listed apart in the source

T1 sequence (P60842 2-406): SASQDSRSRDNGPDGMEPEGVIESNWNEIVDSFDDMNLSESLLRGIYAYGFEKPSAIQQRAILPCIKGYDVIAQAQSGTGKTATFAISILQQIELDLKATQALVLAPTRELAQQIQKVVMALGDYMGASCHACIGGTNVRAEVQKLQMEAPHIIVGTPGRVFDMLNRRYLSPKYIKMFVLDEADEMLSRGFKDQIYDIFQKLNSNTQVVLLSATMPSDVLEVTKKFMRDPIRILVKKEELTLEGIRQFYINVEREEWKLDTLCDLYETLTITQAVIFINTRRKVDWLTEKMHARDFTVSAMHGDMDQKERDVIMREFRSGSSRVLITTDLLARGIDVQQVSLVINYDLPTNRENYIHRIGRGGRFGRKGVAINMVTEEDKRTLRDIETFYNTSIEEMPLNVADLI

IC50 (human eIF4A1 [2])	SMILES	also measured
–	CC(=NNC(=O)c1nnn(-c2nonc2N)c1CSc1nncn1C)c1ccccc1O [RBF197]	IC50 (human eIF4A1 [1]): 0.0552 nM
3000 nM	CC(=NNC(=O)c1nnn(-c2nonc2N)c1CSc1nncn1C)c1cccc(O)c1 [RBF98]	–
0.209 nM	CC(=NNC(=O)c1nnn(-c2nonc2N)c1CSc1nncn1C)c1ccccc1O [RBF203]	–
–	Cn1cnnc1SCc1c(C(=O)NN=Cc2ccccc2O)nnn1-c1nonc1N [RBF208]	IC50 (human eIF4A1 [3]): 0.0741 nM
